{"source": "patent US9968649B2", "about": "“Vasopressin formulations for use in treatment of hypotension” (Par Pharmaceutical, Inc., priority 2015, dated 2018)", "origin": "cited, not measured here", "tested_on": "healthy subjects", "details": "cited from earlier work"}
{"smiles": "NS(=O)(=O)c1cc(C(=O)O)c(NCc2ccco2)cc1Cl", "note": "[Furosemide]", "values": [{"measurement": "increase of urine flow", "setting": "co-administered with exogenous vasopressin, healthy subjects", "value": 9, "unit": "fold"}]}
{"smiles": "FC(F)(F)C(Cl)Br", "note": "(stereo not shown) [Halothane]", "values": [{"measurement": "impact on exposure to endogenous vasopressin", "setting": "in vivo", "value": "do not impact exposure"}]}
{"smiles": "CC[N+](CC)(CC)CC", "note": "[tetra-ethylammonium]", "values": [{"measurement": "increase of the pressor effect of vasopressin", "setting": "healthy subjects", "value": 20, "unit": "%"}]}
{"smiles": "COc1ccc2c(c1)c(CC(=O)O)c(C)n2C(=O)c1ccc(Cl)cc1", "note": "[Indomethacin]", "values": [{"measurement": "time to offset for vasopressin's effect on peripheral vascular resistance and cardiac output", "setting": "co-administered with vasopressin, healthy subjects", "value": "more than doubles"}]}
